From patent US7105675B2, “Pyridomorphinans, thienomorphinans and use thereof” (Southern Research Institute, priority 1999, dated 2006)
Like-named read-outs stand apart in the source and are kept apart here.

Key:
κ1 opioid receptor [1] = molecular target: T1, κ1 opioid receptor (Cavia porcellus, UniProt P41144); details: read-out: Ki (nM) ± SEM κ1; [3H]U69,593, guinea pig brain membranes; data taken from Ananthan et al.; cited from earlier work
T1 construct: Guinea pig brain membranes were prepared each day using partially thawed guinea pig brain; from tissue; host or cells: guinea pig brain membranes

[2] = molecular target: T2, δ opioid receptor (DPDPE) in MVD (Mus musculus, UniProt P32300); details: data taken from Ananthan et al.; cited from earlier work
T2 construct: Electrically-induced smooth muscle contractions of mouse vas deferens and strips of guinea pig ileum longitudinal muscle myenteric plexus were used; from tissue; host or cells: mouse vas deferens (male ICR mice)

mouse vas deferens [3] = details: percentage inhibition of contraction at 1 μM; data taken from Ananthan et al.; cited from earlier work
[4] = system: guinea pig ileum longitudinal muscle myenteric plexus; details: percentage inhibition of contraction at 1 μM; data taken from Ananthan et al.; cited from earlier work
μ opioid receptor [5] = molecular target: T3, μ opioid receptor (Rattus norvegicus, UniProt P33535); details: read-out: Ki (nM) ± SEM μ; [3H]DAMGO, rat brain membranes; data taken from Ananthan et al.; cited from earlier work
T3 construct: Rat membranes were prepared each day using a partially thawed frozen rat brain; from tissue; host or cells: rat brain membranes

δ opioid receptor [6] = molecular target: T4, δ opioid receptor (Rattus norvegicus, UniProt P33533); details: data taken from Ananthan et al., cited from earlier work
[7] = system: μ opioid receptor (PL017) in GPI; details: data taken from Ananthan et al.; cited from earlier work
μ opioid receptor [8] = molecular target: T3, μ opioid receptor; experiment: Radioligand binding, mu sites, displacement of [3H]DAMGO in rat brain membranes
Protocol: (§1) Radioligand Binding Assays. Mu binding sites were labeled using [^3H]DAMGO (1–3 nM). Rat membranes were prepared each day using a partially thawed frozen rat brain which was homogenized with a polytron in 10 mL/brain of ice cold 10 mM Tris-HCl, pH 7.0. Membranes were then centrifuged twice at 30,000 g for 10 min and resuspended with ice-cold buffer following each centrifugation. After the second centrifugation, the membranes were resuspended in 50 mM Tris-HCl, pH 7.4 (50 mL/brain) at 25° C. Incubations proceeded for 2 h at 25° C. in 50 mM Tris-HCl, pH 7.4, along with a protease inhibitor cocktail (PIC). The nonspecific binding was determined using 20 μM of levallorphan. Delta binding sites were labeled using [^3]DADLE (2 nM) and rat brain membranes. Rat membranes were prepared each day using a partially thawed frozen rat brain which was homogenized with a polytron in 10 mL/brain of ice cold 10 mM Tris-HCl, pH 7.0. Membranes were then centrifuged twice at 30,000 g for 10 min and resuspended with ice-cold buffer following each centrifugation. After the second centrifugation, the membranes were resuspended in 50 mM Tris-HCl, pH 7.4 (50 mL/brain) at 25° C. Incubations proceeded for 2 h at 25° C. in 50 mM Tris-HCl pH 7.4, containing 100 mM choline chloride, 3 mM MnCl2, and 100 nM DAMGO to block binding to μ sites, and PIC. Nonspecific binding was determined using 20 μM levallorphan. Kappa binding sites were labeled using [^3H]U69,593 (2 nM). Guinea pig brain membranes were prepared each day using partially thawed guinea pig brain which was homogenized with a polytron in 10 mL/brain of ice cold 10 mM Tris-HCl pH 7.0. The membranes were then centrifuged twice at 30,000 g for 10 min and resuspended with ice-cold buffer following each centrifugation. After the second centrifugation, the membranes were resuspended in 50 mM Tris-HCl, pH 7.4 (75 mL/brain) at 25° C. Incubations proceeded for 2 h at 25° C. in 50 mM Tris-HCl, pH 7.4, containing 1 μg/mL of captopril and PIC. Nonspecific binding was determined using 1 μM U69,593. Each ^3H ligand was displaced by 8–10 concentrations of test drug, two times. Compounds were prepared as 1 mM solution with 10 mM Tris buffer (pH 7.4) containing 10% DMSO before drug dilution. All drug dilutions were done at 10 mM Tris-HCl, pH 7.4, containing 1 mg/mL bovine serum albumin. All washes were done with ice-cold 10 mM Tris-HCl, pH 7.4. The IC50 and slope factor (N) were obtained by using the program MLAB-PC (Civilized Software, Bethesda, Md.). Ki values were calculated according to the equation Ki=IC50/(1+[L]/Kd).

δ opioid receptor [9] = molecular target: T4, δ opioid receptor; experiment: Radioligand binding, delta sites, displacement of [3H]DADLE in rat brain membranes; parameters: Rat membranes were prepared each day using a partially thawed frozen rat brain; from tissue; host or cells: rat brain membranes; details: for Selectivity Ratio κ1δ / Selectivity Ratio μ/δ: thienomorphinans, ratio of Ki values
Protocol: as §1

mouse vas deferens [10] = experiment: Agonist activity in MVD smooth muscle preparation, inhibition of contraction; type: cell-based; details: read-out: agonist activity MVD IC50 (nM) or % max resp
Protocol: (§2) Bioassays in GPI and MVD smooth muscle preparations. Electrically-induced smooth muscle contractions of mouse vas deferens and strips of guinea pig ileum longitudinal muscle myenteric plexus were used. Tissues came from maile ICR mice weighing 25–40 g and male Hartley guinea pigs weighing 250–500 g. The tissues were tied to gold chain with suture silk, suspended in 20 mL baths containing 37° C. oxygenated (95% O2, 5% CO2) Krebs bicarbonate solution (magnesium free for the MVD), and allowed to equilibrate for 15 min. The tissues were then stretched to optimal length previously determined to be 1 g tension (0.5 g for MVD) and allowed to equilibrate for 15 min. The tissues were stimulated transmurally between platinum wire electrodes at 0.1 Hz, 0.4 ms pulses (2-ms pulses for MVD), and supramaximal voltage. An initial dose-response curve of DPDPE or PL-017 was constructed at the start of each assay to establish tissue effects, allowing each tissue to be used as its own control.
(§3) Tissues not producing typical results were not used. Experimental compounds were added to the baths in 14–60 μL volumes. Succeeding doses of argonist were added cumulatively to the bath at 3 minute intervals to produce a concentration-response curve. The tissues were then washed extensively with fresh buffer until the original contraction height was re-established. […] Antagonist effects to DPDPE and PL-017 were assayed after incubation of the tissues with 1 μM concentration of the compound in the bath for 30 minutes. The tissues were then washed with fresh buffer for 30 min, and the agonist dose-response curve was repeated. Rightward shifts in the dose-response curves were calculated by dividing the antagonized dose-response curve IC50 value by the unantagoniced IC50 value. IC50 values represent the mean of two to four tissues. IC50 estimates and their associated standard errors were determined by using a computerized nonlinear least-squares method.

[11] = system: μ opioid receptor (PL017) in GPI; experiment: Antagonist activity against PL-017 in electrically stimulated guinea pig ileum (GPI); type: cell-based; details: for antagonist activity PL017 (μ) GPI IC50 ratio: 1 μM compound, 30 min incubation, IC50 of PL-017 with antagonist divided by control IC50; for antagonist activity PL017 (μ) GPI Ke: Ke = [antagonist]/(IC50 ratio − 1), PL-017 as agonist, n = 3
Protocol: as §2, §3

κ1 opioid receptor [12] = molecular target: T1, κ1 opioid receptor; experiment: Radioligand binding, kappa sites, displacement of [3H]U69,593 in guinea pig brain membranes
Protocol: as §1

[13] = molecular target: T2, δ opioid receptor (DPDPE) in MVD; experiment: Antagonist activity against DPDPE in electrically stimulated mouse vas deferens (MVD); type: cell-based; details: for antagonist activity DPDPE (δ) MVD IC50 ratio: 1 μM compound, 30 min incubation, IC50 of DPDPE with antagonist divided by control IC50; for Ke selectivity ratio μδ: Ke GPI (μ) over Ke MVD (δ)
Protocol: as §2, §3

[14] = system: guinea pig ileum longitudinal muscle myenteric plexus; experiment: Agonist activity in GPI smooth muscle preparation, inhibition of contraction; type: cell-based; details: Cavia porcellus; read-out: agonist activity GPI IC50 (nM) or % max resp
Protocol: as §2, §3

T3 sequence (P33535 whole entry): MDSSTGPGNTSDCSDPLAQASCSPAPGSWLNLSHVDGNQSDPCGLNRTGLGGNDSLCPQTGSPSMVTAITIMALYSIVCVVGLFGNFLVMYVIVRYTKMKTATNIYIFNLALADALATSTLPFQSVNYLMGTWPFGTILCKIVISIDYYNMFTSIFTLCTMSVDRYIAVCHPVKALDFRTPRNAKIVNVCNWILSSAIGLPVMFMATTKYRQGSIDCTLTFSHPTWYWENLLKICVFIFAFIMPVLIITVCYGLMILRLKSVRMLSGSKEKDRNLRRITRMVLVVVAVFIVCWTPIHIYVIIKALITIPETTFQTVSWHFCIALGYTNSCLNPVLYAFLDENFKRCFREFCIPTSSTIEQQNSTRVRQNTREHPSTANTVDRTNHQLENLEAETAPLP
T4 sequence (P33533 whole entry): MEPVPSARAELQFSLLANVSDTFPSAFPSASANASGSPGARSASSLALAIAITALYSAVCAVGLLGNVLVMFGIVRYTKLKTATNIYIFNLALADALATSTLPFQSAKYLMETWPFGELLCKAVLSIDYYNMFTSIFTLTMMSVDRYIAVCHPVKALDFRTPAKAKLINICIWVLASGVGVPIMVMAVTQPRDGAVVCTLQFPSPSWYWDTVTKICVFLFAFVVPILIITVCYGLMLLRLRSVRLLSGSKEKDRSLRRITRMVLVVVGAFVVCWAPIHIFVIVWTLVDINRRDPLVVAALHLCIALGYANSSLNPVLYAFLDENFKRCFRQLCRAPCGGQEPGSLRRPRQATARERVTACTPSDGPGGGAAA
T2 sequence (P32300 whole entry): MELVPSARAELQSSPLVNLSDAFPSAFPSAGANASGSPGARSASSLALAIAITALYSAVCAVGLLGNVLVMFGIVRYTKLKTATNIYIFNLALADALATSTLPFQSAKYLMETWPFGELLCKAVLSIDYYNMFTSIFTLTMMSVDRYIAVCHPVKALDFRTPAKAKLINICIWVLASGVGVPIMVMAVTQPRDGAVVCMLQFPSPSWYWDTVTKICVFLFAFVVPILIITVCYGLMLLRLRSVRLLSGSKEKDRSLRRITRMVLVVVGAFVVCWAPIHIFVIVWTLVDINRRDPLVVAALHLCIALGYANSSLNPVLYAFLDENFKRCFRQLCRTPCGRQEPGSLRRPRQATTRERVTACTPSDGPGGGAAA
T1 sequence (P41144 whole entry): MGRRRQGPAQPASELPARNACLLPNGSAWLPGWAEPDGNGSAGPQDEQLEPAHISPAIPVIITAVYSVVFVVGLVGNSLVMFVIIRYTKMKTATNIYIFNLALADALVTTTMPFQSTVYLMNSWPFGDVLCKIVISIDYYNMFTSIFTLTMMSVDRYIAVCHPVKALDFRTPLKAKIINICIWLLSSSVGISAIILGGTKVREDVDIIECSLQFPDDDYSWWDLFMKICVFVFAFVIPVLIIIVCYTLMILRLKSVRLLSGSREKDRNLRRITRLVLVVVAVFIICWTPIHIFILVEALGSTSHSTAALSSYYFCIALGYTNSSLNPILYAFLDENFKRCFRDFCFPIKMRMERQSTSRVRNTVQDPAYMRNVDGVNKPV

Row | SMILES | Ki (μ opioid receptor [8]) [nM] | Ki (δ opioid receptor [9]) [nM] | Selectivity Ratio κ1δ (δ opioid receptor [9]) | Selectivity Ratio μ/δ (δ opioid receptor [9]) | inhibition at 1 µM (mouse vas deferens [10]) [%] | antagonist activity PL017 (μ) GPI IC50 ratio [11] | antagonist activity PL017 (μ) GPI Ke [11] [nM] | Ki (κ1 opioid receptor [12]) [nM] | Kb [13] [nM] | antagonist activity DPDPE (δ) MVD IC50 ratio [13] | Ke selectivity ratio μδ [13] | inhibition at 1 µM [14] [%] | further results
1 | Oc1ccc2c3c1OC1c4ncccc4CC4(O)C(C2)N(CC2CC2)CCC314 (stereo not drawn) [Compound 7a] |  |  |  |  |  |  |  |  |  |  |  |  | Ki (κ1 opioid receptor [1]): 8.8 ± 0.69 nM; Ke selectivity ratio μδ [2]: 4.4; antagonist activity DPDPE (δ) MVD IC50 ratio [2]: 27.9 ± 1.2; antagonist activity DPDPE (δ) MVD Ke [2]: 37 nM; agonist activity MVD IC50 (nM) or % max resp (mouse vas deferens [3]): 0%; agonist activity GPI IC50 (nM) or % max resp [4]: 0%; Ki (μ opioid receptor [5]): 1.5 ± 0.09 nM; Selectivity Ratio κ1δ (δ opioid receptor [6]; ratio of Ki values): 11; Selectivity Ratio μ/δ (δ opioid receptor [6]; ratio of Ki values): 1.9; Ki (δ opioid receptor [6]; read-out: Ki (nM) ± SEM δ, [3H]DADLE, rat brain membranes): 0.78 ± 0.06 nM; antagonist activity PL017 (μ) GPI IC50 ratio [7]: 7.08 ± 3.44; antagonist activity PL017 (μ) GPI Ke [7]: 164 nM
2 | COC(=O)c1c(N)sc2c1[C@@H]1Oc3c(O)ccc4c3[C@@]13CCN(CC1CC1)[C@H](C4)[C@]3(O)C2 [Compound 8b, 5′-Amino-4′-carbomethoxy-17-(cyclopropylmethyl)-6,7-didehydro-3,14-dihydroxy-4,5α-epoxythieno[2′,3′:7,6]morphinan] | 29 ± 4 | 6.6 ± 0.3 | 1.3 | 4.4 | 0 | 39.1 ± 11.6 | 35 | 8.7 ± 0.34 | 21 | 53.5 ± 10.1 | 1.7 | 0 | 
3 | CCOC(=O)c1c(N)sc2c1[C@@H]1Oc3c(O)ccc4c3[C@@]13CCN(CC1CC1)[C@H](C4)[C@]3(O)C2 [Compound 8c, 5′-Amino-4′-carbethoxy-17-(cyclopropylmethyl)-6,7-didehydro-3,14-dihydroxy-4,5α-epoxythieno[2′,3′:7,6]morphinan] | 20 ± 1 | 5 ± 0.2 | 1.8 | 4.0 | 11 | 46.0 ± 21.9 | 26 | 9 ± 0.81 | 68 | 19.8 ± 6.6 | 0.4 | 0 | 
4 | NC(=O)c1c(N)sc2c1[C@@H]1Oc3c(O)ccc4c3[C@@]13CCN(CC1CC1)[C@H](C4)[C@]3(O)C2 [Compound 8e, 5′-Amino-4′-aminocarbonyl-17-(cyclopropylmethyl)-6,7-didehydro-3,14-dihydroxy-4,5α-epoxythieno[2′,3′:7,6]morphinan] | 21 ± 1.3 | 3.7 ± 0.2 | 0.5 | 5.7 | 5 | 47.8 ± 10.7 | 24 | 2 ± 0.2 | 10 | 118.6 ± 38.4 | 2.4 | 4 | 
5 | Nc1sc2c(c1C(=O)c1ccccc1)[C@@H]1Oc3c(O)ccc4c3[C@@]13CCN(CC1CC1)[C@H](C4)[C@]3(O)C2 [Compound 8f, 5′-Amino-4′-benzoyl-17-(cyclopropylmethyl)-6,7-didehydro-3,14-dihydroxy-4,5α-epoxythieno[2′,3′:7,6]morphinan] | 50 ± 3 | 14 ± 0.7 | 1.0 | 3.6 | 15 | 21.6 ± 7.7 | 62 | 14 ± 0.7 | 46 | 24.4 ± 4.0 | 1.3 | 25 | 
